Key:
[1] = target: T1, glucocorticoid receptor (GR), recombinant full-length receptor protein (Homo sapiens, UniProt P04150); test: Glucocorticoid receptor binding assay (fluorescence polarization kit); settings: 4 nM receptor, 2.5 nM Fluormone GS1 tracer, 2h room temperature, read-out: GR binding ABS IC50
T1 construct: 4 nM recombinant, full-length receptor protein was incubated with increasing concentrations of GR ligand; purchased Life Technologies A-15897
T1 sequence (P04150 1-777): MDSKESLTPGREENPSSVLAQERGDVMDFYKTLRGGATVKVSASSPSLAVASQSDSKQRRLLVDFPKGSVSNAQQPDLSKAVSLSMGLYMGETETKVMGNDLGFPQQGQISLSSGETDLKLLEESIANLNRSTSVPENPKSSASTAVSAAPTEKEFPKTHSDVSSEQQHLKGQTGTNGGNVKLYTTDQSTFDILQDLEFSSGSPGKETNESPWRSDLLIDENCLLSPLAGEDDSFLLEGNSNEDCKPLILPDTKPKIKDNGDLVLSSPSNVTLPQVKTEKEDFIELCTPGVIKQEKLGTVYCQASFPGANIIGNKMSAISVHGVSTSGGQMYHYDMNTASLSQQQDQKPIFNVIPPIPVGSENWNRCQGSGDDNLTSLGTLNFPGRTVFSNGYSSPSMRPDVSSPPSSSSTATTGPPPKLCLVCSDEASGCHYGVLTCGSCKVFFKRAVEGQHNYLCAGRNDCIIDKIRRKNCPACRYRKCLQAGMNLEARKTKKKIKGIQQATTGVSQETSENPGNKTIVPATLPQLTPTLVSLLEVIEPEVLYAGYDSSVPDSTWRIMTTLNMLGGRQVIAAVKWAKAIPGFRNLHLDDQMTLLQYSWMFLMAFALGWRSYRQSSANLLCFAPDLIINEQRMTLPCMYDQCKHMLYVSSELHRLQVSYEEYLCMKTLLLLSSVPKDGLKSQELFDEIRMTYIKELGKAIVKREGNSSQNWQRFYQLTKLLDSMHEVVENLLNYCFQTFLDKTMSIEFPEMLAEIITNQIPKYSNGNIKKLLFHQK
Experimental: Test compounds were diluted in DMSO over seven orders of magnitude, further diluted in assay buffer and distributed into 384-well plates. The sensitivity limit of this assay was 2-4 nM.
Data were processed by sigmoidal curve fitting.
Absolute (Abs) IC50 and Emax were determined from the curve fits.

[2] = test system: TNF alpha release from human PBMCs; test: Inhibition of TNF alpha release from human PBMCs; assay type: cell-based; settings: PBMC, LPS 1 μg/ml, 18 hours, AlphaLISA
Experimental: PBMC were isolated from fresh buffy coats by density centrifugation using lymphoprep (Medinor AB, cat no 1019818) tubes. Isolated PBMCs were washed in assay medium (RPMI1640 with 25 mM HEPES, 1% pen/strep, 200 mM L glutamine and 10% Foetal calf serum). Surplus PBMCs were frozen in medium containing extra 10% foetal calf serum and 5% DMSO. On the assay day, fresh cells or cryopreserved cells after thawing were washed in serum free medium (RPMI1640 with 25 mM HEPES, 1% pen/strep, 200 mM L glutamine and 0.5% human serum albumin) and counted, in order to determine the fraction of living cells (generally >95%).
Test compounds were diluted in DMSO over seven orders of magnitude, further diluted in serum-free medium and distributed into wells of 384 well tissue culture plates. LPS was added to a final concentration of 1 μg/ml to the cells. Immediately thereafter titrated test compounds were added and incubated for 18 hours at 37° C.
The level of TNF-a in the culture supernatant was quantitated by AlphaLISA (Perkin Elmer). 2-(3,5-dichloro-4-pyridinyl)-1-(7-methoxyspiro[1,3-benzodioxole-2,1′-cyclopentan]-4-yl)-ethanone (CAS 185406-34-2) at 100×IC50 was used to define the assay window.
Data were processed by sigmoidal curve fitting. EC50 and Emax were determined from the curve fits.

[3] = Human liver microsomes (HLM) assay; assay type: in vitro ADME; settings: hepatic extraction ratio; 0.5 μM compound, 0.5 mg/mL microsomes, NADPH, 37° C.
Experimental: Incubations of test compounds in DMSO, diluted with phosphate buffer, pH 7.4, at 0.5 μM were carried out with human liver microsomes (0.5 mg/mL). The percentage of organic solvent in the incubations was 1%. The human liver microsomal suspension in phosphate buffer was mixed with NADPH (1 mM) and preheated to 37° C. before test compound was added. Aliquots were taken at 0, 5, 10, 20 and 30 minutes, and reactions were terminated by addition of methanol containing analytical internal standard (IS).
The results were expressed as apparent clearance (Clapp) (mL/min/kg) and hepatic extraction ratio (Eh) (%) calculated from the rate constant (k) (min^−1) of test compound depletion.

Row | SMILES | IC50 [1] [nM] | EC50 [2] [nM] | HLM assay Eh (%) [3]
1 | C[C@H](NC(=O)c1ccon1)[C@H](Oc1ccc(C(=O)O[C@H]2CCCN(C(=O)[C@H]3COC(=O)C3)C2)cc1)c1ccc(C2CC2)cc1 [Compound 51, [(3S)-1-[(3R)-5-oxotetrahydrofuran-3-carbonyl]-3-piperidyl] 4-[(1R,2S)-1-(4-cyclopropylphenyl)-2-(isoxazole-3-carbonylamino)propoxy]benzoate] | < 100 | < 100 | * (extraction ratio (Eh)>90%)
2 | Cc1ncsc1C(=O)N[C@@H](C)[C@H](Oc1ccc(C(=O)O[C@H]2CCCN(C(=O)[C@H]3COC(=O)C3)C2)cc1)c1ccc(C2CC2)cc1 [Compound 30, [(3S)-1-[(3R)-5-oxotetrahydrofuran-3-carbonyl]-3-piperidyl] 4-[(1R,2S)-1-(4-cyclopropylphenyl)-2-[(4-methylthiazole-5-carbonyl)amino]propoxy]benzoate] | < 100 | 100 to 300 | * (extraction ratio (Eh)>90%)
3 | C[C@H](NC(=O)c1cscn1)[C@H](Oc1ccc(C(=O)O[C@H]2CCCN(C(=O)[C@H]3COC(=O)C3)C2)cc1)c1ccc(C2CC2)cc1 [Compound 55, [(3S)-1-[(3R)-5-oxotetrahydrofuran-3-carbonyl]-3-piperidyl] 4-[(1R,2S)-1-(4-cyclopropylphenyl)-2-(thiazole-4-carbonylamino)propoxy]benzoate] | < 100 | < 100 | * (extraction ratio (Eh)>90%)
4 | CCc1ccc([C@@H](Oc2ccc(C(=O)N[C@H]3CCCN(C(=O)[C@H]4COC(=O)C4)C3)nc2)[C@H](C)NC(=O)C(F)(F)F)cc1 [Compound 66, 5-[(1R,2S)-1-(4-ethylphenyl)-2-[(2,2,2-trifluoroacetyl)amino]propoxy]-N-[(3S)-1-[(3R)-5-oxotetrahydrofuran-3-carbonyl]-3-piperidyl]pyridine-2-carboxamide] | < 100 | < 100 | * (extraction ratio (Eh)>90%)
5 | C[C@H](NC(=O)C1(O)CC1)[C@H](Oc1ccc(C(=O)N[C@H]2CCCN(C(=O)[C@H]3COC(=O)C3)C2)nc1)c1ccc(C2CC2)cc1 [Compound 18, 5-[(1R,2S)-1-(4-cyclopropylphenyl)-2-[(1-hydroxycyclopropanecarbonyl)amino]propoxy]-N-[(3S)-1-[(3R)-5-oxotetrahydrofuran-3-carbonyl]-3-piperidyl]pyridine-2-carboxamide] | 100 to 300 | < 100 | * (extraction ratio (Eh)>90%)
6 | C[C@H](NC(=O)c1ccn(C)n1)[C@H](Oc1ccc(C(=O)O[C@H]2CCCN(C(=O)[C@H]3COC(=O)C3)C2)cc1)c1ccc(C2CC2)cc1 [Compound 57, [(3S)-1-[(3R)-5-oxotetrahydrofuran-3-carbonyl]-3-piperidyl] 4-[(1R,2S)-1-(4-cyclopropylphenyl)-2-[(1-methylpyrazole-3-carbonyl)amino]propoxy]benzoate] | < 100 | < 100 | * (extraction ratio (Eh)>90%)
7 | Cc1nc(C(=O)N[C@@H](C)[C@H](Oc2ccc(C(=O)O[C@H]3CCCN(C(=O)[C@H]4COC(=O)C4)C3)cc2)c2ccc(C3CC3)cc2)no1 [Compound 42, [(3S)-1-[(3R)-5-oxotetrahydrofuran-3-carbonyl]-3-piperidyl] 4-[(1R,2S)-1-(4-cyclopropylphenyl)-2-[(5-methyl-1,2,4-oxadiazole-3-carbonyl)amino]propoxy]benzoate] | < 100 | < 100 | * (extraction ratio (Eh)>90%)
8 | Cc1ccc([C@@H](Oc2ccc(C(=O)N[C@H]3CCCN(C(=O)O[C@@H]4COC(=O)C4)C3)nc2)[C@H](C)NC(=O)C(F)(F)F)cc1 [Compound 75, [(3S)-5-oxotetrahydrofuran-3-yl] (3S)-3-[[5-[(1R,2S)-1-(p-tolyl)-2-[(2,2,2-trifluoroacetyl)amino]propoxy]pyridine-2-carbonyl]amino]piperidine-1-carboxylate] | < 100 | 100 to 300 | 
9 | Cc1ccc([C@@H](Oc2ccc(C(=O)N[C@H]3CCCN(C(=O)O[C@H]4COC(=O)C4)C3)nc2)[C@H](C)NC(=O)C(F)(F)F)cc1 [Compound 76, [(34)-5-oxotetrahydrofuran-3-yl] (3S)-3-[[5-[(1R,2S)-1-(p-tolyl)-2-[(2,2,2-trifluoroacetyl)amino]propoxy]pyridine-2-carbonyl]amino]piperidine-1-carboxylate] | < 100 | 100 to 300 | 
10 | Cc1ccc([C@@H](Oc2ccc(C(=O)N[C@H]3CCCN(C(=O)N[C@@H]4COC(=O)C4)C3)nc2)[C@H](C)NC(=O)C(F)(F)F)cc1 [Compound 71, N-[(3S)-1-[[(3S)-5-oxotetrahydrofuran-3-yl]carbamoyl]-3-piperidyl]-5-[(1R,2S)-1-(p-tolyl)-2-[(2,2,2-trifluoroacetyl)amino]propoxy]pyridine-2-carboxamide] | < 100 | < 100 | 
11 | C[C@H](NC(=O)C(F)(F)F)[C@H](Oc1ccc(C(=O)N[C@H]2CCCN(C(=O)[C@H]3COC(=O)C3)C2)nc1)c1ccc(-c2ccccc2)cc1 [Compound 68, N-[(3S)-1-[(3R)-5-oxotetrahydrofuran-3-carbonyl]-3-piperidyl]-5-[(1R,2S)-1-(4-phenylphenyl)-2-[(2,2,2-trifluoroacetyl)amino]propoxy]pyridine-2-carboxamide] | < 100 | < 100 | 
12 | Cc1ccc([C@@H](Oc2ccc(C(=O)N[C@H]3CCCN(C(=O)[C@H]4COC(=O)C4)C3)cc2)[C@H](C)NC(=O)C(F)(F)F)cc1 [Compound 69, N-[(3S)-1-[(3R)-5-oxotetrahydrofuran-3-carbonyl]-3-piperidyl]-4-[(1R,2S)-1-(p-tolyl)-2-[(2,2,2-trifluoroacetyl)amino]propoxy]benzamide] | < 100 | < 100 | 
13 | Cc1ccc([C@@H](Oc2ccc(C(=O)N[C@H]3CCCN(C(=O)[C@H]4COC(=O)C4)C3)nc2)[C@H](C)NC(=O)C(F)(F)F)cc1 [Compound 1, N-[(3S)-1-[(3R)-5-oxotetrahydrofuran-3-carbonyl]-3-piperidyl]-5-[(1R,2S)-1-(p-tolyl)-2-[(2,2,2-trifluoroacetyl)amino]propoxy]pyridine-2-carboxamide] |  | < 100 | * (extraction ratio (Eh)>90%)
14 | Cc1ccc([C@@H](Oc2ccc(C(=O)N[C@H]3CCCN(C(=O)O[C@@H]4CCOC4=O)C3)nc2)[C@H](C)NC(=O)C(F)(F)F)cc1 [Compound 74, [(3R)-2-oxotetrahydrofuran-3-yl] (3S)-3-[[5-[(1R,2S)-1-(p-tolyl)-2-[(2,2,2-trifluoroacetyl)amino]propoxy]pyridine-2-carbonyl]amino]piperidine-1-carboxylate] | < 100 | < 100 | 
15 | Cc1ccc([C@@H](Oc2ccc(C(=O)N[C@@H]3CCCN(C(=O)[C@H]4COC(=O)C4)C3)nc2)[C@H](C)NC(=O)C(F)(F)F)cc1 [Compound 59, N-[(3R)-1-[(3R)-5-oxotetrahydrofuran-3-carbonyl]-3-piperidyl]-5-[(1R,2S)-1-(p-tolyl)-2-[(2,2,2-trifluoroacetyl)amino]propoxy]pyridine-2-carboxamide] |  | < 100 | ** (50%<extraction ratio (Eh)<90%)

Source: patent US10494363B2, “Non-steroidal glucocorticoid receptor modulators for local drug delivery” (LEO PHARMA A/S, priority 2015, dated 2019)
